{
  "source": "patent US20230226109A1",
  "about": "“METHOD FOR DIFFERENTIATING INNATE LYMPHOID CELLS FOR IMMUNOTHERAPY” (The Board of Trustees of the Leland Stanford Junior …, priority 2019, published 2023)",
  "molecules": {"B1": {"name": "E-Cadherin: coating of culture plates, extracellular matrix component, used without feeder cells (protein, UniProt P12830 155-882, looked up)", "Cadherin-1": "DWVIPPISCPENEKGPFPKNLVQIKSNKDKEGKVFYSITGQGADTPPVGVFIIERETGWLKVTEPLDRERIATYTLFSHAVSSNGNAVEDPMEILITVTDQNDNKPEFTQEVFKGSVMEGALPGTSVMEVTATDADDDVNTYNAAIAYTILSQDPELPDKNMFTINRNTGVISVVTTGLDRESFPTYTLVVQAADLQGEGLSTTATAVITVTDTNDNPPIFNPTTYKGQVPENEANVVITTLKVTDADAPNTPAWEAVYTILNDDGGQFVVTTNPVNNDGILKTAKGLDFEAKQQYILHVAVTNVVPFEVSLTTSTATVTVDVLDVNEAPIFVPPEKRVEVSEDFGVGQEITSYTAQEPDTFMEQKITYRIWRDTANWLEINPDTGAISTRAELDREDFEHVKNSTYTALIIATDNGSPVATGTGTLLLILSDVNDNAPIPEPRTIFFCERNPKPQVINIIDADLPPNTSPFTAELTHGASANWTIQYNDPTQESIILKPKMALEVGDYKINLKLMDNQNKDQVTTLEVSVCDCEGAAGVCRKAQPVEAGLQIPAILGILGGILALLILILLLLLFLRRRAVVKEPLLPPEDDTRDNVYYYDEEGGGEEDQDFDLSQLHRGLDARPEVTRNDVAPTLMSVPRYLPRPANPDEIGNFIDENLKAADTDPTAPPYDSLLVFDYEGSGSEAASLSSLNSSESDKDQDYDYLNEWGNRFKKLADMYGGGEDD"}},
  "key": {"[1]": {"tested_on": "peripheral NK cells", "assay": "in vitro differentiation of peripheral NK cells into ielLC1-like cells, co-culture with epithelial feeder cells", "format": "cell-based, human", "experimental": "(A) Protocol for in vitro differentiation of peripheral NK cells into ielLC1-like cells. In brief, PCI13 cells were seeded into a culture plate, then peripheral NK cells were sorted and added to the culture (ratio 10NK:1PCI13) in the presence or not of IL15 (10 ng/mL). After 4 days of co-culture, NK cells were harvested for phenotypic and functional analysis. (B, LEFT) Dot plots show the expression of CD49a and CD103 on gated Lin^−CD45^+CD56^+ NK cells, after culture of NK with PCI13 and IL15 (10 ng/mL) or control conditions. […] (C-D) Functional response of in vitro differentiated ielLC1-like cells. […] (D) After in vitro differentiation, CD49a^− and CD49a^+ cells were sorted and mixed with PCI13 (10^6 NK cells:5.10^6 PCI13) and injected subcutaneously in the flank of NSG mice. Then, tumor volume was measured over time. […] (E) Sorted CD49a^+ and CD49a^− NK cells were assessed for expression of NR4A1, NR4A2, and NR4A3 by qRT-PCR.\nIn a summary of the protocol for in vitro differentiation of peripheral conventional NK cells into ielLC1-like cells: sorted, enriched, or expanded peripheral NK cells in the presence of IL15 are seeded into culture with cells such as HNSCC, which may be irradiated, or onto plate surfaces that mimic select attributes of these cells. After a suitable period of time for culture, e.g. about 4 days, the differentiated cells are harvested for analysis and effector functions.\n• HNSCC cells were harvested from their culture, washed with PBS and counted. • HNSCC cells were then resuspended in media for co-culture, and seeded into plates as follows:\n• NK were resuspended with media containing IL-15. • NK cells were added to the co-culture as follows:\n• On day 2, half of the supernatant was replaced with fresh media containing IL-15 (20 ng/mL). Harvesting and use of ielLC1-Like Cells. • On day 4, ILC1-like cells were harvested. • Note: The harvested cells were ielLC1-like cells. HNSCC cells were killed during the culture. • ILC1-like cells were washed with PBS and counted. • ILC1-like cells were then used for phenotypic analysis and functional assays."}, "[2]": {"tested_on": "peripheral NK cells", "assay": "in vivo differentiation of peripheral NK cells injected intra-tumor into PCI13 tumors", "design": "species or system NSG mice", "details": "IL15 5 μg/mouse every 2 days, tumors harvested after 6 days", "experimental": "(A) Protocol used to evaluate the in vivo differentiation of peripheral NK cells into ILC1-like cells. In brief, 10^6 PCI13 were subcutaneously injected in the flank of NSG mice, after 10-15 days (when the tumor were palpable) peripheral NK cells were obtained from blood and were injected intra-tumor. Mice were treated or not with IL15 (5 μg/mouse) every 2 days. After 6 days, tumors were harvested and the phenotype and function of intra-tumoral NK cells were assessed. (B) According to the protocol described in (A), sorted Lin^−CD56^+ NK cells were intra-tumor injected. […] (C-D) According to the protocol described in (A), sorted Lin^−CD56^+CD94^+CD16^− Stage 4b NK cells were intra-tumor injected. (C, LEFT) Dot plots show the expression of CD49a and CD103 on NK cells obtained following intra-tumor injection of sorted stage 4b NK cells, in the presence or not of IL15 in vivo. […]\n10^6 PCI13 tumor cells were subcutaneously injected in the flank of NSG mice, after 10-15 days (when the tumor were palpable) peripheral NK cells were obtained from blood and were injected intra-tumor. […] After 6 days, tumors were harvested and the phenotype and function of intra-tumoral NK cells were assessed."}, "[3]": {"tested_on": "NK cells", "assay": "feeder cell-free culture of NK cells, differentiation into ielLC1-like cells", "format": "cell-based, human", "details": "culture plates with or without E-Cadherin coating, NK cells with IL-15, no feeder cells", "source_text": "FIG. 7: Co-culture of peripheral NK cells with IL-15 and TGFbeta enhances differentiation into ielLC1-like cells. (A) Using a co-culture system similar to FIG. 5A, NK cells were co-cultured with MDCK (top) or PCI-13 (bottom) in the presence of IL-15 and either the TGFbeta receptor 2 inhibitor ITD1 or the ALK receptor inhibitor SB-431542 or TGFb.\nFIG. 11: Feeder cell-free culture of NK cells with extracellular matrix components can induce ielLC1-like cell differentiation. Culture plates with or without E-Cadherin coating was used to culture NK cells with IL-15."}, "[4]": {"details": "NK cells with IL-15 and PCI-13 carcinoma cells"}, "[5]": {"details": "NK cells co-cultured with MDCK or PCI-13 in the presence of IL-15"}},
  "data": [
    {"molecule": "Cc1ccccc1N=Nc1ccc(NC(=O)c2ccnn2C)c(C)c1", "note": "[CH-223191]", "values": [
      {"measurement": "ielLC1-like cell differentiation", "setting": "[1]; [4]", "result": "profound reduction of ielLC1-like differentiation"}
    ]},
    {"molecule": "O=Cc1c2[nH]c3ccccc3c2cc2[nH]c3ccccc3c12", "note": "[FICZ]", "values": [
      {"measurement": "ielLC1-like cell differentiation", "setting": "[1]; [4]", "result": "promoted the ielLC1-like differentiation"}
    ]},
    {"molecule": "CCOC(=O)C1=C(C)NC2=C(C(=O)CC(C)(C)C2)C1c1ccc(-c2ccccc2)cc1", "note": "(centres unmarked) [ITD1]", "values": [
      {"measurement": "ielLC1-like cell differentiation", "setting": "[1]; [5]", "result": "significant inhibition of ielLC1-like cell differentiation"}
    ]},
    {"molecule": "NC(=O)c1ccc(-c2nc(-c3ccc4c(c3)OCO4)c(-c3ccccn3)[nH]2)cc1", "note": "[SB-431542]", "values": [
      {"measurement": "ielLC1-like cell differentiation", "setting": "[1]; [5]", "result": "significant inhibition of ielLC1-like cell differentiation"}
    ]},
    {"molecule": "IL-15: 14-15 kDa glycoprotein cytokine (BioLegend; Cat #570306)", "values": [
      {"measurement": "differentiation of peripheral NK into ielLC1-like cells (CD49a+, CD49a+CD103+)", "setting": "[1]; NK with PCI13 (ratio 10NK:1PCI13), IL15 10 ng/mL, 4 days", "result": "promotes differentiation of peripheral NK into ielLC1-like cells"},
      {"measurement": "differentiation of peripheral NK into ielLC1-like cells in vivo", "setting": "[2]", "result": "promotes differentiation of peripheral NK into ielLC1-like cells in vivo"}
    ]},
    {"molecule": "TGFb", "values": [
      {"measurement": "ielLC1-like cell differentiation", "setting": "[1]; [5]", "result": "stimulation of the ielLC1-like phenotype"}
    ]},
    {"molecule": "B1", "values": [
      {"measurement": "formation of ielLC1-like cells", "setting": "[3]", "result": "enhanced formation of the ielLC1-like cells"}
    ]}
  ]
}
